# Experimental data taken from patent publication US20230085307A1, “PYRIDAZINONE COMPOUND AND HERBICIDE” (NISSAN CHEMICAL CORPORATION, priority 2019, published 2023).
# Tests used:
# green foxtail [1] = test: Test Example 5: herbicidal effect by foliage application, plastic box (Table 20, symbol G); type: in vivo, green foxtail (Setaria viridis); details: evaluated three weeks after application
# Summary of the method: (§1)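 Sow seeds spot-wise in sterilized diluvial soil; cover with ~1.5 cm soil. Grow 14 days in greenhouse, 25° C. to 30° C. Spray foliage with emulsion diluted to predetermined amount. Rate effect after 3 weeks.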
# green foxtail [2] = test: Test Example 4: herbicidal effect by soil treatment (Table 19, symbol G); type: in vivo, green foxtail (Setaria viridis); details: amount of applied herbicide 320 g/ha
# Summary of the method: (§2)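 Soil-surface application: an emulsion agent diluted with water to the predetermined dose is sprayed uniformly over seeds lying under roughly 1.5 cm of sterilized diluvial soil. Boxes stay in a greenhouse at 25° C. to 30° C. Three weeks later, each species is graded on previously defined criteria.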
# blackgrass [3] = test: Test Example 4: herbicidal effect by soil treatment (Table 19, symbol J); type: in vivo, blackgrass (Alopecurus myosuroides); details: amount of applied herbicide 320 g/ha
# Excerpt: (§3) [Test Example 4] Herbicidal Effect Test by Soil Treatment
# (§4) Sterilized diluvial soil was placed in a plastic box having a length of 21 cm, a width of 13 cm, and a depth of 7 cm. The seeds of each of southern crabgrass, green foxtail, barnyard grass, wild oat, blackgrass, Italian ryegrass, windgrass, velvetleaf, redroot pigweed, lambsquarters, chickweed, false cleavers, persian speedwell, corn, soybean, rice, wheat, beet, and rapeseed were sowed in a spot-like manner and covered with the soil having a thickness of about 1.5 cm. Subsequently, the emulsion agent of the compound of the present invention prepared according to Formulation Example 2 was diluted with water so as to achieve a predetermined herbicide amount, and the diluted emulsion agent was uniformly applied to the surface of the soil with a small-sized spray. The plastic box was placed in a greenhouse at 25° C. to 30° C. for growth of the plants. Three weeks after the herbicide application, the effect of the herbicide on each plant was evaluated according to the criteria of Test Example 1.
# redroot pigweed [4] = test: Test Example 4: herbicidal effect by soil treatment (Table 19, symbol N); type: in vivo, redroot pigweed (Amaranthus retroflexus); details: amount of applied herbicide 320 g/ha
# Summary of the method: as §2
# wild oat [5] = test: Test Example 4: herbicidal effect by soil treatment (Table 19, symbol I); type: in vivo, wild oat (Avena fatua); details: amount of applied herbicide 320 g/ha
# Excerpt: as §3, §4
# windgrass [6] = test: Test Example 5: herbicidal effect by foliage application, plastic box (Table 20, symbol L); type: in vivo, windgrass (Apera spica-venti); details: evaluated three weeks after application
# Summary of the method: as §1
# persian speedwell = test: Test Example 5: herbicidal effect by foliage application, plastic box (Table 20, symbol R); type: in vivo, Persian speedwell (Veronica persica); details: evaluated three weeks after application
# Summary of the method: as §1
# barnyard grass [7] = test: Test Example 5: herbicidal effect by foliage application, plastic box (Table 20, symbol H); type: in vivo, barnyard grass (Echinochloa crus-galli); details: evaluated three weeks after application
# Summary of the method: as §1
# rice flat sedge = test: Test Example 3: herbicidal effect by foliage application, Wagner pot (Table 18, symbol E); type: in vivo, rice flat sedge (Cyperus iria)
# Summary of the method: (§5)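 Plants were sown in alluvial soil held under 0.1–0.5 cm standing water and grown 14 days in a greenhouse at 25–30 °C. An emulsifiable formulation, water-diluted to the set dose, was then sprayed onto the foliage, and effects were scored three weeks later using previously defined criteria.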
# southern crabgrass [8] = test: Test Example 4: herbicidal effect by soil treatment (Table 19, symbol F); type: in vivo, southern crabgrass (Digitaria ciliaris); details: amount of applied herbicide 320 g/ha
# Summary of the method: as §2
# Italian ryegrass [9] = test: Test Example 5: herbicidal effect by foliage application, plastic box (Table 20, symbol K); type: in vivo, Italian ryegrass (Lolium multiflorum); details: evaluated three weeks after application
# Summary of the method: as §1
# Italian ryegrass [10] = test: Test Example 4: herbicidal effect by soil treatment (Table 19, symbol K); type: in vivo, Italian ryegrass (Lolium multiflorum); details: amount of applied herbicide 320 g/ha
# Excerpt: as §3, §4
# southern crabgrass [11] = test: Test Example 5: herbicidal effect by foliage application, plastic box (Table 20, symbol F); type: in vivo, southern crabgrass (Digitaria ciliaris); details: evaluated three weeks after application
# Summary of the method: as §1
# redroot pigweed [12] = test: Test Example 5: herbicidal effect by foliage application, plastic box (Table 20, symbol N); type: in vivo, redroot pigweed (Amaranthus retroflexus); details: evaluated three weeks after application
# Summary of the method: as §1
# barnyard grass [13] = test: Test Example 3: herbicidal effect by foliage application, Wagner pot (Table 18, symbol H); type: in vivo, barnyard grass (Echinochloa crus-galli)
# Summary of the method: as §5
# velvetleaf [14] = test: Test Example 5: herbicidal effect by foliage application, plastic box (Table 20, symbol M); type: in vivo, velvetleaf (Abutilon theophrasti); details: evaluated three weeks after application
# Summary of the method: as §1
# Chinese sprangletop = test: Test Example 3: herbicidal effect by foliage application, Wagner pot (Table 18, symbol D); type: in vivo, chinese sprangletop (Leptochloa chinensis)
# Summary of the method: as §5
# wild oat [15] = test: Test Example 5: herbicidal effect by foliage application, plastic box (Table 20, symbol I); type: in vivo, wild oat (Avena fatua); details: evaluated three weeks after application
# Summary of the method: as §1
# lambsquarters [16] = test: Test Example 5: herbicidal effect by foliage application, plastic box (Table 20, symbol O); type: in vivo, lambsquarters (Chenopodium album); details: evaluated three weeks after application
# Summary of the method: as §1
# chickweed [17] = test: Test Example 4: herbicidal effect by soil treatment (Table 19, symbol P); type: in vivo, common chickweed (Stellaria media); details: amount of applied herbicide 320 g/ha
# Excerpt: as §3, §4
# velvetleaf [18] = test: Test Example 4: herbicidal effect by soil treatment (Table 19, symbol M); type: in vivo, velvetleaf (Abutilon theophrasti); details: amount of applied herbicide 320 g/ha
# Summary of the method: as §2
# windgrass [19] = test: Test Example 4: herbicidal effect by soil treatment (Table 19, symbol L); type: in vivo, windgrass (Apera spica-venti); details: amount of applied herbicide 320 g/ha
# Excerpt: as §3, §4
# barnyard grass [20] = test: Test Example 4: herbicidal effect by soil treatment (Table 19, symbol H); type: in vivo, barnyard grass (Echinochloa crus-galli); details: amount of applied herbicide 320 g/ha
# Summary of the method: as §2
# lambsquarters [21] = test: Test Example 4: herbicidal effect by soil treatment (Table 19, symbol O); type: in vivo, lambsquarters (Chenopodium album); details: amount of applied herbicide 320 g/ha
# Summary of the method: as §2
# chickweed [22] = test: Test Example 5: herbicidal effect by foliage application, plastic box (Table 20, symbol P); type: in vivo, common chickweed (Stellaria media); details: evaluated three weeks after application
# Summary of the method: as §1
# blackgrass [23] = test: Test Example 5: herbicidal effect by foliage application, plastic box (Table 20, symbol J); type: in vivo, blackgrass (Alopecurus myosuroides); details: amount of applied herbicide 320 g/ha; foliage application after 14-day growth; evaluated three weeks after application
# Summary of the method: as §1
# [24] = foliage application, AAH 320 g/ha
# [25] = amount of applied herbicide 320 g/ha
# [26] = amount of applied herbicide 320 g/ha, foliage application after 14-day growth
structure (smiles),measurement,setting,value
CCCC(=O)Oc1c(C)nn(C)c(=O)c1-c1c(-c2cccc(OCc3ccccc3)c2)sc2ccc(F)cc12 [2-268],"G: green foxtail, herbicidal effect (criteria 0-5)",green foxtail [1]; [24],4 (Herbicidal rate of 70% or more and less than 90%)
same,herbicidal effect on G: green foxtail,green foxtail [2],0 (Herbicidal rate of 5% or less (almost no effect))
same,herbicidal effect on J: blackgrass,blackgrass [3],0 (Herbicidal rate of 5% or less (almost no effect))
same,herbicidal effect on N: redroot pigweed,redroot pigweed [4],0 (Herbicidal rate of 5% or less (almost no effect))
same,herbicidal effect on I: wild oat,wild oat [5],0 (Herbicidal rate of 5% or less (almost no effect))
same,"L: windgrass, herbicidal effect (criteria 0-5)",windgrass [6]; [24],1 (Herbicidal rate of 5% or more and less than 20%)
same,"R: persian speedwell, herbicidal effect (criteria 0-5)",persian speedwell; [24],4 (Herbicidal rate of 70% or more and less than 90%)
same,"H: barnyard grass, herbicidal effect (criteria 0-5)",barnyard grass [7]; [24],4 (Herbicidal rate of 70% or more and less than 90%)
same,herbicidal effect on E: rice flat sedge,rice flat sedge; [25],3 (Herbicidal rate of 40% or more and less than 70%)
same,herbicidal effect on F: southern crabgrass,southern crabgrass [8],0 (Herbicidal rate of 5% or less (almost no effect))
same,"K: Italian ryegrass, herbicidal effect (criteria 0-5)",Italian ryegrass [9]; [24],2 (Herbicidal rate of 20% or more and less than 40%)
same,herbicidal effect on K: Italian ryegrass,Italian ryegrass [10],3 (Herbicidal rate of 40% or more and less than 70%)
same,"F: southern crabgrass, herbicidal effect (criteria 0-5)",southern crabgrass [11]; [24],1 (Herbicidal rate of 5% or more and less than 20%)
same,"N: redroot pigweed, herbicidal effect (criteria 0-5)",redroot pigweed [12]; [24],3 (Herbicidal rate of 40% or more and less than 70%)
same,herbicidal effect on H: barnyard grass,barnyard grass [13]; [25],4 (Herbicidal rate of 70% or more and less than 90%)
same,"M: velvetleaf, herbicidal effect (criteria 0-5)",velvetleaf [14]; [24],1 (Herbicidal rate of 5% or more and less than 20%)
same,herbicidal effect on D: Chinese sprangletop,Chinese sprangletop; [25],3 (Herbicidal rate of 40% or more and less than 70%)
same,"I: wild oat, herbicidal effect (criteria 0-5)",wild oat [15]; [24],0 (Herbicidal rate of 5% or less (almost no effect))
same,"O: lambsquarters, herbicidal effect (criteria 0-5)",lambsquarters [16]; [24],3 (Herbicidal rate of 40% or more and less than 70%)
same,herbicidal effect on P: chickweed,chickweed [17],0 (Herbicidal rate of 5% or less (almost no effect))
same,herbicidal effect on M: velvetleaf,velvetleaf [18],0 (Herbicidal rate of 5% or less (almost no effect))
same,herbicidal effect on L: windgrass,windgrass [19],0 (Herbicidal rate of 5% or less (almost no effect))
same,herbicidal effect on H: barnyard grass,barnyard grass [20],0 (Herbicidal rate of 5% or less (almost no effect))
same,herbicidal effect on O: lambsquarters,lambsquarters [21],0 (Herbicidal rate of 5% or less (almost no effect))
same,"P: chickweed, herbicidal effect (criteria 0-5)",chickweed [22]; [24],5 (Herbicidal rate of 90% or more (almost completely withered))
CCCC(=O)Oc1c(C)nn(C)c(=O)c1-c1c(-c2cccc(SCC)c2)sc2c(Cl)cccc12 [4-093],"Herbicidal effect by foliage application, G: green foxtail",green foxtail [1]; [26],2 (Herbicidal rate of 20% or more and less than 40%)
same,"Herbicidal effect by foliage application, L: windgrass",windgrass [6]; [26],0 (Herbicidal rate of 5% or less (almost no effect))
same,"Herbicidal effect by foliage application, R: persian speedwell",persian speedwell; [26],3 (Herbicidal rate of 40% or more and less than 70%)
same,"Herbicidal effect by foliage application, H: barnyard grass",barnyard grass [7]; [26],0 (Herbicidal rate of 5% or less (almost no effect))
same,herbicidal effect on rice flat sedge (E),rice flat sedge; 320 g/ha,4 (Herbicidal rate of 70% or more and less than 90%)
same,"Herbicidal effect by foliage application, J: blackgrass",blackgrass [23],0 (Herbicidal rate of 5% or less (almost no effect))
same,"Herbicidal effect by foliage application, K: Italian ryegrass",Italian ryegrass [9]; [26],0 (Herbicidal rate of 5% or less (almost no effect))
same,"Herbicidal effect by foliage application, F: southern crabgrass",southern crabgrass [11]; [26],0 (Herbicidal rate of 5% or less (almost no effect))
same,"Herbicidal effect by foliage application, N: redroot pigweed",redroot pigweed [12]; [26],3 (Herbicidal rate of 40% or more and less than 70%)
same,herbicidal effect on barnyard grass (H),barnyard grass [13]; 320 g/ha,5 (Herbicidal rate of 90% or more (almost completely withered))
same,"Herbicidal effect by foliage application, M: velvetleaf",velvetleaf [14]; [26],3 (Herbicidal rate of 40% or more and less than 70%)
same,herbicidal effect on Chinese sprangletop (D),Chinese sprangletop; 320 g/ha,4 (Herbicidal rate of 70% or more and less than 90%)
same,"Herbicidal effect by foliage application, I: wild oat",wild oat [15]; [26],1 (Herbicidal rate of 5% or more and less than 20%)
same,"Herbicidal effect by foliage application, O: lambsquarters",lambsquarters [16]; [26],1 (Herbicidal rate of 5% or more and less than 20%)
same,"Herbicidal effect by foliage application, P: chickweed",chickweed [22]; [26],1 (Herbicidal rate of 5% or more and less than 20%)
